# Source: ChEMBL document CHEMBL4651402, “Screening of ~5500 FDA-approved drugs and clinical candidates for anti-SARS-CoV-2 activity” (2021)
# Tested on: SARS-CoV-2
# Assay: microbe, parasite or virus in culture
# Conditions: Severe acute respiratory syndrome coronavirus 2, Vero C1008, 48 h
SMILES,IC50 [µM],IC50 (read-out: pIC50 (converted)) [µM]
CCCCN1C[C@H](O)[C@@H](O)[C@H](O)[C@H]1CO,> 20,> 20
CN(C)CCCCCCN(C)C,> 20,> 20
C[N+]1(C)[C@@H]2CC[C@@H]1CC(OC(=O)C(CO)c1ccccc1)C2 (stereo partly specified),> 20,> 20
CN(CCCCCCCCCCN(C)C(=O)Oc1cccc([N+](C)(C)C)c1)C(=O)Oc1cccc([N+](C)(C)C)c1,> 20,> 20
Nc1ncnc2c([C@@H]3N[C@H](CO)[C@@H](O)[C@H]3O)c[nH]c12,> 100,> 100
Cn1cc(-c2cccc3cc(C(=O)NC(=N)N)ccc23)cn1,> 20,> 20
C[C@H](CCC(=O)O)[C@H]1CC[C@H]2[C@@H]3[C@@H](O)C[C@@H]4C[C@H](O)CC[C@]4(C)[C@H]3C[C@H](O)[C@]12C,> 20,> 20
O=C(/C=C/c1ccc(O)cc1)c1ccccc1O,> 20,> 20
COc1ccc(/C=C/C(=O)/C=C(O)/C=C/c2ccc(OC)c(OC)c2)cc1OC,> 20,> 20
COC1C(OC(=O)/C=C/C=C/C=C/C=C/C(=O)O)CCC2(CO2)C1C1(C)OC1CC=C(C)C (stereo unspecified),> 20,> 20
CC(=O)OC1CC2CCC1(C)C2(C)C (stereo unspecified),> 20,> 20
NNC(=O)CN1C(=O)CN=C(c2ccccc2)c2cc(Br)ccc21,> 20,> 20
COc1cc2c3cc1Oc1cc(ccc1O)CC1c4c(cc(OC)c(O)c4Oc4ccc(cc4)CC3N(C)CC2)CC[N+]1(C)C (stereo unspecified),> 20,> 20
O=C(Nc1cccnn1)N1CCC(=Cc2cccc(Oc3ccc(C(F)(F)F)cn3)c2)CC1,> 20,> 20
COC(=O)C1=COC(C)C2CN3CCC4(C(=O)Nc5ccccc54)C3CC12 (stereo unspecified),> 20,> 20
C1CCN2CC3CC(CN4CCCCC34)C2C1 (stereo unspecified),> 20,> 20
CC(=O)N[C@H]1[C@H](O[C@@H]2c3ccc(c(Cl)c3)Oc3cc4cc(c3O[C@@H]3O[C@H](CO)[C@@H](O)[C@H](O)[C@H]3NC(=O)CCCCCCC(C)C)Oc3ccc(cc3Cl)C[C@H]3NC(=O)[C@@H](N)c5ccc(O)c(c5)Oc5cc(O)cc(c5)[C@H](NC3=O)C(=O)N[C@H]4C(=O)N[C@H]3C(=O)N[C@@H]2C(=O)N[C@@H](C(=O)O)c2cc(O)cc(O[C@H]4O[C@H](CO)[C@@H](O)[C@H](O)[C@@H]4O)c2-c2cc3ccc2O)O[C@H](CO)[C@@H](O)[C@@H]1O,> 20,> 20
CCC[C@]1(c2cccc(O)c2)CCN(C)C[C@@H]1C,> 20,> 20
NC(CO)Cc1ccccc1 (stereo unspecified),> 20,> 20
NC(=O)c1cnc(N[C@@H]2CCCC[C@@H]2N)nc1Nc1cccc(-n2nccn2)c1,> 20,> 20

SMILES,IC50 [µM],IC50 (read-out: pIC50 (converted)) [µM]
C[C@@H](N)Cc1c[nH]cn1,> 20,> 20
CN1C2CCC1CC(OC(c1ccccc1)c1ccccc1N)C2 (stereo unspecified),> 20,> 20
Cc1cnc(C(=O)N[C@H]2CCCCC/C=C\[C@@H]3C[C@@]3(C(=O)NS(=O)(=O)C3CC3)NC(=O)[C@@H]3C[C@@H](Oc4nc5ccccc5c5ccccc45)CN3C2=O)cn1,> 20,> 20
COc1cc(N2CCC(N(C)C)CC2)ccc1Nc1ncc(Cl)c(Nc2ccccc2P(C)(C)=O)n1,> 20,> 20
O=C(Cc1cccc(OC(F)(F)F)c1)Nc1ccc(CCCCc2nnc(NC(=O)Cc3ccccn3)s2)nn1,> 20,> 20
O=C1c2ccccc2-c2c1c1ccccc1c(=O)n2CCNCCO,> 20,> 20
CC(C)CC(NC(=O)C(Cc1ccccc1)NC(=O)CNC(=O)C(C)NC(=O)C(N)Cc1ccc(O)cc1)C(=O)O (stereo unspecified),> 20,> 20
Cc1cc(-c2nc(CN3CCNCC3)no2)cc2c1C(=O)N(Cc1ccc(OC(F)(F)F)cc1)C2,> 20,> 20
CS(=O)(=O)CCC#N,> 20,> 20
Nc1ncnc2c1ncn2C1CC(O)C(CO)O1 (stereo unspecified),> 20,> 20
C[C@@H]1NC(=O)NC1=O,> 20,> 20
Cc1cc(Nc2ncnc3ccc(-c4ccc(CNCCS(C)(=O)=O)o4)cc23)ccc1Oc1ccn2ncnc2c1,> 20,> 20
CC(=O)OCC(=O)[C@@]1(O)CC[C@H]2[C@@H]3CCC4=CC(=O)CC[C@]4(C)C3(F)[C@@H](O)C[C@@]21C (stereo partly specified),> 20,> 20
COC(=O)C1=C(CN2CC(F)(F)C[C@H]2C(=O)O)NC(c2nccs2)=N[C@@]1(C)c1ccc(F)cc1,> 20,> 20
CN1CCC2=C[C@H](O)[C@H]3OC(=O)c4cc5c(cc4[C@H]3[C@@H]21)OCO5,> 20,> 20
C=C1C(=O)O[C@@H]2[C@H]3O[C@]3(C)CC/C=C(\C)CC[C@@H]12,> 20,> 20
CC(=O)O[C@H]1C[C@H](O[C@H]2[C@@H](O)C[C@H](O[C@H]3[C@@H](O)C[C@H](OC4CCC5(C)C(CCC6C5CCC5(C)C(C7=CC(=O)OC7)CCC65O)C4)O[C@@H]3C)O[C@@H]2C)O[C@H](C)[C@H]1O[C@@H]1O[C@H](CO)[C@@H](O)[C@H](O)[C@H]1O (stereo partly specified),> 20,> 20
CCN1C[C@]2(C)CC[C@H](O)[C@@]34[C@@H]5C[C@H]6[C@H](O)[C@@H]5[C@](O)(C[C@@H]6OC)[C@@H](C[C@H]23)[C@H]14,> 20,> 20
COc1ccc2c3c1O[C@H]1[C@@H](O)C=C[C@H]4C(C2)N(C)CCC341 (stereo partly specified),> 20,> 20
CO[C@H]1C(O)C[C@H](O[C@H]2C(O)C[C@H](O[C@H]3C(O)C[C@H](OC4CC[C@@]5(C)C(CCC6C5CC(O)[C@]5(C)[C@@H](C7=CC(=O)OC7)CCC65O)C4)OC3C)OC2C)OC1C (stereo partly specified),> 20,> 20

SMILES,IC50 [µM],IC50 (read-out: pIC50 (converted)) [µM]
C[N+](C)(C)CCOP(=O)([O-])OC[C@@H](O)CO,> 20,> 20
C[C@@](O)(COc1ccc(C#N)cc1)C(=O)Nc1ccc(C#N)c(C(F)(F)F)c1,> 20,> 20
CC12C=CC(=O)C=C1CCC1C2C(O)CC2(C)C1CC[C@]2(O)C(=O)COC(=O)CCC(=O)O (stereo partly specified),> 20,> 20
CCN(CC)CC(C)OC(=O)[C@H]1CCCC[C@]1(O)C1CCCCC1 (stereo partly specified),> 20,> 20
CC12CCC(O)CC1=CCC1C2CCC2(C)C(O)CCC12 (stereo unspecified),> 20,> 20
CC12C=CC(=O)C=C1CCC1C3CC4Cc5ccccc5CC4(C(=O)CO)C3(C)CC(O)C12F (stereo unspecified),> 20,> 20
CC1(O)CCOC(=O)C1 (stereo unspecified),> 20,> 20
CN1CC[C@@]23CCCC[C@@H]2C1Cc1ccc(O)cc13,> 20,> 20
CCC1=C[C@@H]2CN3CCc4c([nH]c5ccccc45)[C@@](C(=O)OC)(C2)[C@H]13,> 20,> 20
C/C=C(\C)C(=O)OC1C(OC(C)=O)C2(CO)C(O)CC3(C)C(=CCC4C5(C)CCC(OC6OC(C(=O)O)C(OC7OC(CO)C(O)C(O)C7O)C(O)C6OC6OC(CO)C(O)C(O)C6O)C(C)(CO)C5CCC43C)C2CC1(C)C (stereo unspecified),> 20,> 20
COc1ccc(C(=O)OC2CCC3(C)C4CCC5[C@]6(O)[C@@H](O)C(O)[C@H]7C(CN8CC(C)CC[C@H]8[C@@]7(C)O)[C@@H]6C[C@@]53O[C@]24O)cc1OC (stereo partly specified),> 20,> 20
C=C1[C@@H](O)C2/C=C\C[C@H](C)C(=O)[C@](C)(O)/C=C/[C@@H](OC(C)=O)[C@]23C(=O)N[C@H](Cc2ccccc2)[C@@H]3[C@@H]1C (stereo partly specified),> 20,> 20
CCOC(=O)c1ccc(OCCC2CCN(c3ccc(C)nn3)CC2)cc1,> 20,> 20
CCC(=O)N(c1ccc(Cl)c(Cl)c1)[C@@H]1CCC[C@H]1N(C)C,> 20,> 20
CCC(CO)NC(=O)[C@@H]1C=C2c3cccc4[nH]cc(c34)CC2N(C)C1 (stereo partly specified),> 20,> 20
CC/C=C/C/C=C/C/C=C/C/C=C/C/C=C/CCCC(=O)O,> 20,> 20
CC(=O)Nc1ccc(S(=O)(=O)Nc2ccc([N+](=O)[O-])cc2)cc1,> 20,> 20
CC(=O)c1ccc2c(c1)[C@@H]1C=CC[C@@H]1[C@H](c1cc3c(cc1Br)OCO3)N2,> 20,> 20
